Experimental data taken from article PMC12914960, “Repurposing a detrimental antibody epitope as targeted therapeutics for sepsis and rheumatoid arthritis” (Military Medical Research, 2026).
Where “and” joins values, the source holds several entries; their conditions need not be identical. Identical values can stand only once. Where a SMILES comes first, the peptide text is derived from it.

Columns and labels:
[1] = test system: CAIA-induced joint cytokines and chemokines; experiment: Cytokine antibody arrays of joint tissue of CAIA mice; assay type: in vivo, mouse; set-up: VCAM1 / sTNFRI / sTNFRII / MIP-1gamma / MIP2 / P-selectin: unit not given here
Description: The levels of cytokines and chemokines in mouse serum and joint tissue lysates, or human PBMC culture supernatants, were determined via murine or human cytokine antibody arrays (e.g., Cat. #AAM-CYM-3–8 or Cat. #AAH-CYT-3–8, RayBiotech Inc., Norcross, GA, USA) as previously described. For the sepsis model, blood samples were collected from the mice (n = 4) at 24 h post-CLP. For the CAIA model, soft tissues from the hindpaw and ankle joints were carefully harvested from normal (n = 2) and CAIA (n = 4) mice using a previously established protocol. Briefly, 0.5 g of fresh soft tissue was cut into 3 mm pieces and mixed with 400 µl of a hypertonic solution (500 ml of PBS with 4.5 g of NaCl and 2 × protease inhibitor cocktail) in a 10 ml syringe. Mechanical extrusion, involving 30 rapid back-and-forth movements of the plunger, was then performed. The expelled extracellular fluid was collected, immediately aliquoted, and stored at −20 °C until analysis. Cell-conditioned medium was collected from PBMC cultures after 16 h of stimulation. Arrays were performed according to the manufacturer’s protocol, followed by chemiluminescent detection and densitometric quantification as previously described.
Fig. S5 Representative cytokine antibody arrays depicting the effect of P2- 1 on collagen antibody- induced
arthritis (CAIA)- induced joint inflammation. Representative images from cyt okine antibody arrays of j oint
tissue lysates from 4 vehicle-treated CAIA mice and 4 P2-1- treated CAIA mice (harvested on Day 10). […]

human PBMCs = experiment: RNA-seq of HMGB1-stimulated PBMCs; assay type: cell-based
Description: Total RNA was isolated from human PBMCs (n = 6 biological replicates) stimulated with HMGB1 in the absence or presence of P2-1 (5.0 or 10.0 µg/ml) via the RNeasy Mini Kit (Qiagen, Germantown, MD, USA) according to the manufacturer’s instructions. cDNA libraries were prepared using the TruSeq RNA Library Prep Kit v2 (Illumina, San Diego, CA, USA) and sequenced on an Illumina NovaSeq 6000 platform to generate 100 bp paired-end reads. Gene counts were quantified via StringTie and DESeq2 for differential gene expression analysis. Volcano plots and heatmaps were generated via ggplot2 and pheatmap packages in R, respectively. Genes with an adjusted P-value < 0.05 and a |log2 fold change|> 1 were considered differentially expressed. […]
custom-synthesized (Gen Script, Piscataway, NJ, USA). P2 -1 was engineered to: i) increase solubility by removing a w ater-insoluble phenylalanine (F) at the C-terminal residue 70 and introducing a water-soluble threonine (T) at N-t erminal residue 54; and ii) reduce oxidative susceptibility by substituting methionine (M) with norleucine (Nle) and cysteine (C) with serine (S), respectively. The pCTS -L-neutralizing mAbs (mAb2) and TN-neutrali zing mAbs (mAb8 and m Ab9) were generated in BALB/c and C57BL/6 m ice as previously described .
RNA sequencing (RNA- Seq) and bioinformatics analysis
Total RNA was isolated from human PBMCs (n= 6 biological replicates) stimulated with HMGB1 in the absence o r pres ence o f P2-1 (5.0 or 10.0 µg/ml) via the RNeasy Mini Kit (Qiagen, Germantown, MD, USA) according to the manufacturer ’s instructions. RNA quantity and quality were assessed via a NanoDrop spectrophotometer, which requires A260/280 and A260/230 ratios to both be > 1.8. Samples meeting these criteria were then sent to two sequencing facilities, where RNA integrity was further confirmed via an Agilent Bioanalyzer. Only samples with an RNA integrity number of 8 or above were accepted for RNA sequencing. cDNA libraries were prepared using the TruSeq RNA Library Prep Kit v2 (Illumina, San Diego, CA, USA) and sequenced on an Illumina NovaSeq 6000 platform to generat e 100 bp paired-end reads. Our data filtering criteria adhered to industry best practices to ensure data quality.
First, raw sequencing reads underwent quality assessment with FastQC, followed by adapter and low-quality nucleotide trimming using Trimmomatic v.0.36. Subsequently, the high- quality reads wer e aligned to the Homo sapiens GRCh38 reference genome using the STAR aligner v.2.5.2b. Following alignment, PCR duplicates were identified and removed with Picard tools to mitigate amplification bias. Before differential expression an alysis, the gene count matrix was filtered to retain only genes with a count-per-million (CPM) > 1 in at least three samples (n = 3, representing our smallest experimental group). This rigorous procedure ensured that analysis was perfo rmed on a robust set of reliably expressed gen es. Finally, gene counts were quantified via StringTie and DESeq2 for differential gene expression analysis. Volcano

Water solubility = assay type: physicochemical; conditions: qualitative, text in Fig. 1d
[2] = CAIA + P2-1, joint tissue Day 10, individual values, P = 0.00077753

CCCC[C@H](NC(=O)[C@H](Cc1c[nH]cn1)NC(=O)[C@@H](NC(=O)[C@H](CCCCN)NC(=O)[C@@H](N)[C@@H](C)O)C(C)C)C(=O)N[C@@H](CCCCN)C(=O)N[C@@H](CO)C(=O)N[C@@H](Cc1ccccc1)C(=O)N[C@@H](CC(C)C)C(=O)N[C@@H](C)C(=O)N[C@@H](Cc1ccccc1)C(=O)N[C@@H](CCC(N)=O)C(=O)N[C@H](C(=O)N[C@@H](CCCCN)C(=O)N[C@H](C(=O)O)[C@@H](C)O)[C@@H](C)O [P2-1] (HELM PEPTIDE1{T.K.V.H.[Nle].K.S.F.L.A.F.Q.T.K.T}$$$$V2.0; N-terminus and C-terminus assumed)
VCAM1 ([1]; CAIA + P2-1, joint tissue Day 10, individual values, P = 0.0007706): 4 and 4.5 and 8.2 and 10.3 and 3.3 and 1.2 and 0.7 | sTNFRI [1, 2]: 23.4 and 20.4 and 17.4 and 17 and 24.9 and 22.3 and 40 and 36.8 | sTNFRII [1, 2]: 12.4 and 11.7 and 6.5 and 5.7 and 3.2 and 2.8 and 5.8 and 5.9 | MIP-1gamma ([1]; CAIA + P2-1, joint tissue Day 10, individual values, P = 0.00163): 39.6 and 44.2 and 29 and 33.7 and 41.8 and 44.8 and 49.9 and 50.4 | MIP2 ([1]; CAIA + P2-1, joint tissue Day 10, individual values, P = 0.02067): 2.5 and 2.7 and 4.3 and 4.8 and 5.9 and 7.2 and 5.1 and 5.2 | P-selectin ([1]; CAIA + P2-1, joint tissue Day 10, individual values, P = 0.04584): 3.6 and 4 and 3.4 and 5.3 and 5.6 and 7.5 and 8 | joint inflammation, in words ([1]; P2-1 prophylactic): significantly reducing joint levels of sTNFRI and sTNFRII, the chemokine MIP-1γ/CCL9, and VCAM-1 | joint tissue inflammation, in words ([1]; P2-1 therapeutic, sTNFRI, sTNFRII, MIP-1γ/CCL9, VCAM-1, Day 10): significantly reduced CAIA-induced joint tissue inflammation | Ctsl mRNA upregulation (human PBMCs; HMGB1 + P2-1 5.0 µg/ml, human PBMCs): 2.4 ± 0.1 -fold | HMGB1-induced transcriptional changes, in words (human PBMCs; HMGB1 with P2-1, human PBMCs): did not broadly reverse HMGB1-induced transcriptional changes in most genes | Water solubility (Water solubility): Good water solubility
